Results reported in PubChem BioAssay AID624367 (Broad Institute, 2012).
Calls of active or inactive are those of the source. No rule for the calls is given here.

Test: viability loss in LCL cells – cell-based, plate reader, dry powder, set 2, cytotoxicity control, dose response (AID 624367)
Settings: Lymphoblastoid cell line (LCL) cytotoxicity, plate reader; at 30 µM (top of the series)

Structure (SMILES) | activity change, negative = cytotoxicity
Cc1cc(C(=O)Nc2ccc3c(c2)C(=O)N(C)[C@@H]2CC[C@H](CC(=O)NCc4ccc(-c5ccccc5)cc4)O[C@H]2CO3)no1 | -7.18% (inactive)
C[C@H](NC(=O)C[C@@H]1C=C[C@H](NC(=O)Cc2ccccn2)[C@H](CO)O1)c1ccccc1 | 6.34% (inactive)
Cc1noc(C)c1S(=O)(=O)Nc1ccc2c(c1)C(=O)N([C@@H](C)CO)C[C@@H](C)[C@H](CN(C)Cc1ccc(C(F)(F)F)cc1)OCCCC[C@H](C)O2 | -0.638% (inactive)

Same assay, conditions: Lymphoblastoid cell line (LCL) cytotoxicity, plate reader; at 35 µM (top of the series)

Structure (SMILES) | activity change, negative = cytotoxicity
Cc1noc(C)c1S(=O)(=O)Nc1ccc2c(c1)C(=O)N([C@H](C)CO)C[C@H](C)[C@H](CN(C)Cc1ccc(C(F)(F)F)cc1)OCCCC[C@H](C)O2 | -5.76% (inactive)
O=C(Cc1ccccn1)NCC[C@H]1CC[C@H](NC(=O)Nc2ccc(Cl)cc2)[C@H](CO)O1 | 7.55% (inactive)
Cc1noc(C)c1S(=O)(=O)Nc1ccc2c(c1)C(=O)N([C@@H](C)CO)C[C@@H](C)[C@H](CN(C)Cc1ccc(C(F)(F)F)cc1)OCCCC[C@@H](C)O2 | -6.19% (inactive)
O=C(Cc1ccccn1)NCC[C@@H]1CC[C@@H](NC(=O)Nc2ccc(Cl)cc2)[C@H](CO)O1 | -2.4% (inactive)
Cc1noc(C)c1S(=O)(=O)Nc1ccc2c(c1)C(=O)N([C@@H](C)CO)C[C@H](C)[C@H](CN(C)Cc1ccc(C(F)(F)F)cc1)OCCCC[C@H](C)O2 | -5.45% (inactive)
CC(C)NC(=O)N1[C@H](CO)[C@H](c2ccc(C#CC3CCCCC3)cc2)[C@@H]1C#N | -1.32% (inactive)
COc1cccc(S(=O)(=O)N(C)C[C@H]2Oc3cc(C4=CCCCC4)ccc3S(=O)(=O)N([C@H](C)CO)C[C@H]2C)c1 | -4.62% (inactive)
COc1ccc(S(=O)(=O)N(C)C[C@@H]2Oc3ncc(/C=C/c4ccccc4)cc3C(=O)N([C@@H](C)CO)C[C@H]2C)cc1 | -4% (inactive)
COc1ccccc1C#Cc1ccc([C@H]2[C@H](C#N)N(C(=O)C3CC3)[C@H]2CO)cc1 | -4.85% (inactive)
COc1ccc(NC(=O)N(C)C[C@@H]2Oc3cc(C#CCC(C)C)ccc3S(=O)(=O)N([C@@H](C)CO)C[C@@H]2C)cc1 | -0.055% (inactive)
Cc1cc(C(=O)Nc2ccc3c(c2)C(=O)N(C)[C@H]2CC[C@@H](CC(=O)NCc4ccc(-c5ccccc5)cc4)O[C@H]2CO3)no1 | -17.8% (inactive)
COc1ccc(S(=O)(=O)N(C)C[C@H]2Oc3ncc(/C=C/c4ccccc4)cc3C(=O)N([C@H](C)CO)C[C@@H]2C)cc1 | 7.14% (inactive)
N#C[C@@H]1[C@H](c2ccc(C#Cc3ccccc3F)cc2)[C@@H](CO)N1C(=O)c1cccnc1 | -5.47% (inactive)
C[C@H](NC(=O)C[C@@H]1C=C[C@H](NC(=O)Cc2ccccn2)[C@@H](CO)O1)c1ccccc1 | 4.27% (inactive)
C[C@@H]1CN([C@@H](C)CO)S(=O)(=O)c2ccc(C#C[C@@H](C)O)cc2O[C@H]1CN(C)Cc1ccc(-c2ccccc2)cc1 | -1.38% (inactive)
Cc1ccc(S(=O)(=O)N(C)C[C@H]2Oc3cc(C#Cc4ccncc4)ccc3S(=O)(=O)N([C@@H](C)CO)C[C@@H]2C)cc1 | 8.38% (inactive)
C[C@H](NC(=O)C[C@H]1C=C[C@H](NC(=O)Cc2ccccn2)[C@H](CO)O1)c1ccccc1 | 10.5% (inactive)
CO[C@@H]1CN(C)C(=O)c2ccc(NC(C)=O)cc2OC[C@@H](C)N(Cc2ccccc2F)C[C@H]1C | 2.23% (inactive)
COc1cccc(C#Cc2ccc([C@@H]3[C@@H](C#N)N(C(=O)c4ccccn4)[C@@H]3CO)cc2)c1 | 7.55% (inactive)

Structure (SMILES) | activity change, negative = cytotoxicity
O=C(Cc1ccccn1)NCC[C@H]1CC[C@@H](NC(=O)Nc2ccc(Cl)cc2)[C@@H](CO)O1 | -2.19% (inactive)
O=C(C[C@H]1C[C@@H]2c3cc(NS(=O)(=O)c4ccc(F)cc4)ccc3O[C@@H]2[C@H](CO)O1)NC1CCCCC1 | 0.09% (inactive)
C[C@@H](NC(=O)C[C@H]1C=C[C@H](NC(=O)Cc2ccccn2)[C@H](CO)O1)c1ccccc1 | 1.04% (inactive)
CS(=O)(=O)Nc1ccc2c(c1)[C@@H]1C[C@H](CC(=O)NCC3CC3)O[C@H](CO)[C@@H]1O2 | 1.53% (inactive)
COc1cccc(S(=O)(=O)N(C)C[C@@H]2Oc3cc(C4=CCCCC4)ccc3S(=O)(=O)N([C@@H](C)CO)C[C@@H]2C)c1 | -5.63% (inactive)
CN1C(=O)c2cc(NC(=O)c3ccc(C(F)(F)F)cc3)ccc2OC[C@@H]2O[C@H](CC(=O)NC3Cc4ccccc4C3)CC[C@H]21 | -1.04% (inactive)
COc1ccccc1C#Cc1ccc2c(c1)O[C@H](CN(C)Cc1cccnc1)[C@H](C)CN([C@@H](C)CO)S2(=O)=O | -1.62% (inactive)
O=C(C[C@@H]1C[C@@H]2c3cc(NC(=O)c4cccnc4)ccc3O[C@@H]2[C@H](CO)O1)NCC(F)(F)F | -0.745% (inactive)
C[C@H](NC(=O)C[C@H]1C=C[C@@H](NC(=O)Cc2ccccn2)[C@@H](CO)O1)c1ccccc1 | 6.04% (inactive)
C[C@@H]1CN([C@H](C)CO)S(=O)(=O)c2ccc(C#C[C@@H](C)O)cc2O[C@H]1CN(C)Cc1ccc(-c2ccccc2)cc1 | -3.17% (inactive)
O=C(C[C@@H]1C[C@@H]2c3cc(NS(=O)(=O)c4ccc(F)cc4)ccc3O[C@@H]2[C@H](CO)O1)NC1CCCCC1 | 0.429% (inactive)
COc1cccc(-c2cccc(-c3nc(C(=O)NCC(F)(F)F)cc4c3[C@H](CCO)N([S@@](=O)C(C)(C)C)C4)c2)c1 | -12.4% (inactive)
CC(C)(C)[S@@](=O)N1Cc2cc(C(=O)NCCc3ccncc3)nc(-c3cccc(-c4cccnc4)c3)c2[C@H]1CCO | 4.85% (inactive)
COc1cccc(C(=O)Nc2ccc3c(c2)C(=O)N(C)C[C@H](OC)[C@@H](C)CN(CCc2ccccc2)[C@@H](C)CO3)c1 | -13% (inactive)
C[C@H]1CN([C@@H](C)CO)C(=O)Cc2cc(NC(=O)Cc3ccccc3)ccc2O[C@@H]1CN(C)Cc1ccc(C(F)(F)F)cc1 | -5.68% (inactive)
C[C@@H](NC(=O)C[C@@H]1C=C[C@H](NC(=O)Cc2ccccn2)[C@@H](CO)O1)c1ccccc1 | -4.44% (inactive)
C[C@H]1CN([C@@H](C)CO)C(=O)c2c(c3ccccc3n2C)-c2ccccc2CO[C@H]1CN(C)C(=O)Nc1ccc(F)cc1 | 0.119% (inactive)
COC(=O)C[C@H]1C[C@H]2c3cc(NC(=O)CN(C)C)ccc3O[C@H]2[C@H](CO)O1 | 3.27% (inactive)
CC(C)(C)[S@@](=O)N1Cc2cc(C(=O)NCc3ccccc3F)nc(-c3cccc(-c4ccncc4)c3)c2[C@H]1CCO | 0.812% (inactive)

Structure (SMILES) | activity change, negative = cytotoxicity
C[C@H]1CN([C@@H](C)CO)C(=O)c2c(c3ccccc3n2C)-c2ccccc2CO[C@@H]1CN(C)C(=O)Nc1ccc(F)cc1 | 1.36% (inactive)
C[C@@H]1CN([C@H](C)CO)S(=O)(=O)c2ccc(/C=C/c3ccccc3)cc2O[C@H]1CN(C)C(=O)NC1CCCCC1 | -0.754% (inactive)
CN1C(=O)c2cc(NC(=O)Cc3cccs3)ccc2OC[C@@H]2O[C@H](CC(=O)NCc3ccc(-c4ccccc4)cc3)CC[C@H]21 | -7.27% (inactive)
C[C@H](NC(=O)C[C@@H]1C=C[C@@H](NC(=O)Cc2ccccn2)[C@H](CO)O1)c1ccccc1 | 3.26% (inactive)
CC(=O)N(C)C[C@@H]1Oc2cc(C#Cc3ccc(F)cc3)ccc2S(=O)(=O)N([C@H](C)CO)C[C@H]1C | 1.69% (inactive)
Cc1ccc(S(=O)(=O)N(C)C[C@H]2Oc3cc(C#Cc4ccncc4)ccc3S(=O)(=O)N([C@@H](C)CO)C[C@H]2C)cc1 | -6.9% (inactive)
C[C@H]1CN([C@@H](C)CO)C(=O)c2cc(C#Cc3ccccc3F)cnc2O[C@@H]1CN(C)C(=O)C1CCCCC1 | 8.49% (inactive)
O=C(C[C@@H]1C[C@H]2c3cc(NC(=O)c4ccc5c(c4)OCO5)ccc3O[C@H]2[C@H](CO)O1)NC1CCCCC1 | -16.7% (inactive)
O=C(C[C@@H]1CC[C@H]2[C@@H](COC[C@H](O)CN2Cc2ccc(Oc3ccccc3)cc2)O1)N1CCc2ccccc2C1 | -13.4% (inactive)
C[C@@H]1CN([C@@H](C)CO)C(=O)c2c(c3ccccc3n2C)-c2ccccc2CO[C@H]1CN(C)C(=O)Nc1ccc(F)cc1 | 3.34% (inactive)
O=C(Cc1ccccn1)NCC[C@H]1CC[C@@H](NC(=O)Nc2ccc(Cl)cc2)[C@H](CO)O1 | -1.08% (inactive)
N#C[C@H]1[C@@H](c2ccc(-c3cccnc3)cc2)[C@@H](CO)N1C(=O)Nc1ccc(F)cc1 | 3.54% (inactive)
C[C@@H](NC(=O)C[C@@H]1C=C[C@@H](NC(=O)Cc2ccccn2)[C@@H](CO)O1)c1ccccc1 | -0.658% (inactive)
COc1cccc(S(=O)(=O)N(C)C[C@@H]2Oc3cc(C4=CCCCC4)ccc3S(=O)(=O)N([C@H](C)CO)C[C@H]2C)c1 | 7.75% (inactive)
C[C@@H]1CN([C@H](C)CO)C(=O)c2c(c3ccccc3n2C)-c2ccccc2CO[C@@H]1CN(C)C(=O)Nc1ccc(F)cc1 | -1.38% (inactive)
C[C@H](NC(=O)C[C@H]1C[C@@H]2c3cc(NC(=O)c4cccnc4)ccc3O[C@@H]2[C@@H](CO)O1)c1ccccc1 | -1.74% (inactive)
COc1ccccc1C(=O)Nc1ccc2c(c1)C(=O)N(C)[C@@H]1CC[C@H](CC(=O)NCCc3ccncc3)O[C@H]1CO2 | 0.764% (inactive)
CC(C)NC(=O)N1Cc2cc(C(=O)NC3Cc4ccccc4C3)nc(-c3cccc(-c4cccnc4)c3)c2[C@H]1CCO | -2.11% (inactive)
CC(C)(C)[S@@](=O)N1Cc2cc(C(=O)NCc3ccccn3)nc(-c3cccc(-c4ccccc4F)c3)c2[C@H]1CCO | -1.27% (inactive)
